Test [1] deals with P. aeruginosa PA01. The test can be described thus: Minimal inhibitory concentration of β-lactams by serial dilution. The note with it: Pseudomonas aeruginosa, PA01, 18 h, standard serial dilution, 18 h at 37°C.
Procedure: Determination of the Minimal Inhibitory Concentration of β-lactams: Cultures were prepared by inoculating Mueller–Hinton broth (5 mL) with a small amount of a glycerol stock of P. aeruginosa PA01 and then were grown at 37°C to an OD600 value of ≈0.5. 96-well plates containing a range of concentrations of β-lactams varying by factors of 2 were prepared. […] These broths were inoculated with the culture (100 μL) and allowed to incubate at 37°C for 18 h. […] All MIC determinations were performed in triplicate.
Test [2] concerns P. aeruginosa PA01. The test can be described thus: Agar diffusion test. Format: cell-based, Pseudomonas aeruginosa. The note with it: 6 mm filter disks loaded with 30 μg of antibiotic, incubation overnight.
Test [3] deals with T1, StNagZ (Salmonella typhimurium, UniProt Q8ZQ06).
T1 construct: made in house
The test can be described thus: Kinetic analysis of inhibitors against StNagZ. It is filed as biochemical. To be noted: for S.R. (Ki OGA/Ki StNagZ): selectivity ratio.

Test [4] deals with T2, VcNagZ (Vibrio cholerae serotype O1, UniProt Q9KU37).
T2 sequence (Q9KU37 1-330): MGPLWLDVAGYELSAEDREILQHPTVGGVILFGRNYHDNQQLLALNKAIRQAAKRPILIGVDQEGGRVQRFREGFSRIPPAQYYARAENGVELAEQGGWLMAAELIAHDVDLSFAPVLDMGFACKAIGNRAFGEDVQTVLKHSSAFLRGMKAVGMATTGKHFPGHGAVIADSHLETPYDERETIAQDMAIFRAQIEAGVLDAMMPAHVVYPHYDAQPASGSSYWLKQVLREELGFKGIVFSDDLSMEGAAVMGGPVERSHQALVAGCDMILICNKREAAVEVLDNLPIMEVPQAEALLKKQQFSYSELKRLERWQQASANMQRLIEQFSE
The test can be described thus: Kinetic analysis of inhibitors against VcNagZ. The note with it: for S.R. (Ki OGA/Ki VcNagZ): selectivity ratio. Format: biochemical. The procedure:
(§1) Kinetic analysis of inhibitors: Assays against O-GlcNAcase, VcNagZ and StNagZ were performed in NaPi buffer (50 mM, NaCl (100 mM), pH 6.5) and for β-hexosaminidase B citrate buffer (50 mM, NaCl (100 mM), pH 4.25) using 4-methylumbelliferyl N-acetyl-β-D-glucosaminide as substrate. For NAGLU, assays were performed in acetate buffer (100 mM, pH 4.3), containing bovine serum albumin (0.5 mgmL^−1) using 4-methylumbelliferyl N-acetyl-α-D-glucosaminide as substrate. Release of 4-methylumbelliferone was monitored continuously using a fluorimeter plate reader for OGA, VcNagZ and StNagZ, and a 30 min stopped-assay procedure was used for β-hexosaminidase B and NAGLU (quenched with fourfold excess of quenching buffer, glycine (200 mM), pH 10.75). For OGA, the inhibitors were preincubated with the enzyme for 10 min before the addition of the substrate. Readings were taken at excitation and emission wavelengths of 368 nm and 450 nm respectively. […] Inhibitors were added at a range of concentrations encompassing their Ki values. The rates at each inhibitor concentration were plotted and the best fit line through the points ascertained. The −1/Ki was taken as the point where the line of best fit intersected with 1/Vmax.

The target in test [5] is T3, NAGLU (Homo sapiens, UniProt P54802).
T3 sequence (P54802 24-743): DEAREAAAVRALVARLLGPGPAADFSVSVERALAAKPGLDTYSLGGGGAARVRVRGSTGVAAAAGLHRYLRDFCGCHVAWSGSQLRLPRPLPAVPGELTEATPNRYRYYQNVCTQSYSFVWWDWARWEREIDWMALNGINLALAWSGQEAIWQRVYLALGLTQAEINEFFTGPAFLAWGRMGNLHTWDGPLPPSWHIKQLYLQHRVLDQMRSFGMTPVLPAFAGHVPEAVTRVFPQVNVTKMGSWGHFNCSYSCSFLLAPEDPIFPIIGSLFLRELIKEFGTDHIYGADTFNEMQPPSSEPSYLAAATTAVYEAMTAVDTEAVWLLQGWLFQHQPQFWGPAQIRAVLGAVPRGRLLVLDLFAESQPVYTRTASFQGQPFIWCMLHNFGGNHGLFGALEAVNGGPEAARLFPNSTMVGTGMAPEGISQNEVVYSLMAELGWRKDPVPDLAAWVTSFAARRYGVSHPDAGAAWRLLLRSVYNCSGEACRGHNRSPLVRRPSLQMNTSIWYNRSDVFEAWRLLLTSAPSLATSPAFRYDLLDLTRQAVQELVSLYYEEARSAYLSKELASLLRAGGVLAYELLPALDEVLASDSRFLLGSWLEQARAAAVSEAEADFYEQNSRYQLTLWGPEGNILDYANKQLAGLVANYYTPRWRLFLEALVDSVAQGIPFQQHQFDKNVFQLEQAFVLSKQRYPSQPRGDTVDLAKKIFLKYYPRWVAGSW
Further details: method as in PMID 10833408. To be noted: read-out: NAGLU Ki; literature value; cited from earlier work.

Test [6] deals with T4, O-GlcNAcase (OGA) (Homo sapiens, UniProt O60502).
T4 sequence (O60502 1-916): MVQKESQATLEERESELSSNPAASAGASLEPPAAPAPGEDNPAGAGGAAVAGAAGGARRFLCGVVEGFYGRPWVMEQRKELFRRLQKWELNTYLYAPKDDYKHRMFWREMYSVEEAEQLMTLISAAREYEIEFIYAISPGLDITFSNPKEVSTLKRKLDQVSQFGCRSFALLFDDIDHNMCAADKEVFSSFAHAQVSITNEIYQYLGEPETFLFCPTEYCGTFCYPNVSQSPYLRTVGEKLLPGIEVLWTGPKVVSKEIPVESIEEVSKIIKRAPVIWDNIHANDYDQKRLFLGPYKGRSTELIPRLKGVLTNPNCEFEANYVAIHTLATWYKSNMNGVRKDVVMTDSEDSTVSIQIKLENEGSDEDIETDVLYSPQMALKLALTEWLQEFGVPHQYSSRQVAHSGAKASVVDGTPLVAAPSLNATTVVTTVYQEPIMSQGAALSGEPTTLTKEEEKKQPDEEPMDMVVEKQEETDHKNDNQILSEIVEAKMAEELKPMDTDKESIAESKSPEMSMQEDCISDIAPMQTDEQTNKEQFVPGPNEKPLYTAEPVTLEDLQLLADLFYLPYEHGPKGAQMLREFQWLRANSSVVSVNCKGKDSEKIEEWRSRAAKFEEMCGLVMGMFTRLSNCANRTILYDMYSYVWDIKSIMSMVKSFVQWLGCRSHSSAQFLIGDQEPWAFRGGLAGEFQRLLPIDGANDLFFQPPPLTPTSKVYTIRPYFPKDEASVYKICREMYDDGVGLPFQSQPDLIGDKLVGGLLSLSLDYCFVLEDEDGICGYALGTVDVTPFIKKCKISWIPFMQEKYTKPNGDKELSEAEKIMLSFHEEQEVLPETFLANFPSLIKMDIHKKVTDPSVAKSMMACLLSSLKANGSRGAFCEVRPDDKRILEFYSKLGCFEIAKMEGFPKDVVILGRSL
The test can be described thus: Kinetic analysis of inhibitors against O-GlcNAcase. It is filed as biochemical. The procedure:
as §1

Test [7] deals with T3, NAGLU. The test can be described thus: Kinetic analysis of inhibitors against NAGLU. It is filed as biochemical. The procedure:
as §1

In test [8] the target is T5, β-hexosaminidase B (Homo sapiens, UniProt P07686).
T5 sequence (P07686 122-556): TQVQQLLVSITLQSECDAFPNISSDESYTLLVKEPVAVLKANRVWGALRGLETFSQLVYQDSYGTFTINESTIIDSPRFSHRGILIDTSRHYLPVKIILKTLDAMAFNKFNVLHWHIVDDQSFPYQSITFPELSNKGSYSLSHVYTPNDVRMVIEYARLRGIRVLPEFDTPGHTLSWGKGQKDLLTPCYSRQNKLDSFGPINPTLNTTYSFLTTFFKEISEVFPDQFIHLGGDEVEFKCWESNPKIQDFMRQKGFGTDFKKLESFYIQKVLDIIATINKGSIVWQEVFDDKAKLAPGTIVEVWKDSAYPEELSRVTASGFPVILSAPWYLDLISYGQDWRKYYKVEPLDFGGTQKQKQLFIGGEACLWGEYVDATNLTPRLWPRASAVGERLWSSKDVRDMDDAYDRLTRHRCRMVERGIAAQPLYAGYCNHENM
The test can be described thus: Kinetic analysis of inhibitors against β-hexosaminidase B. Format: biochemical. The procedure:
as §1

In test [9] the test system is P. aeruginosa PA01. The test can be described thus: Control: 21 alone as inhibitor of bacterial growth. It is filed as cell-based, Pseudomonas aeruginosa. To be noted: up to 1 mM (data not shown). An excerpt:
. […] Of note is that the concentration of 21 required to give rise to the increased susceptibility observed is fivefold less than the concentration of the PUGNAc analogue O-(2-deoxy-2-N-2-ethylbutyryl-D-glucopyranosylidene)amino N-phenylcarbamate (EtBuPUG) used previously to induce a similar effect.[23]

[10] abbreviates: +21 (20 μL of 1 mM in H2O per well).

≈ marks a conversion by molar mass, not a printed value. Like-named read-outs stand apart in the source and are kept apart here. Some results are limits rather than exact numbers.

These results are taken from paper PMC3920638, “The Development of Selective Inhibitors of NagZ: Increased Susceptibility of Gram-Negative Bacteria to β-Lactams” (Chembiochem, 2013).

On to `CC1(C)S[C@@H]2[C@H](NC(=O)[C@H](N)c3ccccc3)C(=O)N2[C@H]1C(=O)O` [Ampicillin, ampicillin], for which the results for the MIC in [1] (setting [10]) and in test [1] (−21) were 128 µg/mL (≈ 366 µM) and 512 µg/mL (≈ 1470 µM), respectively.
For `C[C@H]1[C@H](NC(=O)/C(=N\OC(C)(C)C(=O)O)c2csc(N)n2)C(=O)N1S(=O)(=O)O` [Aztreonam, aztreonam] the same measures were 0.5 µg/mL (≈ 1.15 µM) and 1 µg/mL (≈ 2.3 µM).
For `CO[C@@]1(NC(=O)Cc2cccs2)C(=O)N2C(C(=O)O)=C(COC(N)=O)CS[C@@H]21` [Cefoxitin, cefoxitin] the same measures were 512 µg/mL (≈ 1200 µM) and 2050 µg/mL (≈ 4790 µM).
For `CC(C)(O/N=C(\C(=O)N[C@@H]1C(=O)N2C(C(=O)[O-])=C(C[n+]3ccccc3)CS[C@H]12)c1csc(N)n1)C(=O)O` [Ceftazidime, ceftazidime], the Clearing radius amounted to 14.3 mm in test [2] (+21) and 12.2 mm in test [2] (−21). Moreover, the MIC (as a rule, the smallest concentration in the dilution series that meets the test's criterion for growth inhibition) in [1] (setting [10]) is 0.5 µg/mL (≈ 0.915 µM); in [1] (−21), 2 µg/mL (≈ 3.66 µM).
Take `CC(=O)N[C@H]1CN[C@H](CO)[C@@H](O)[C@@H]1O` [Compound 1, 2-Acetamido-1,5-imino-1,2,5-trideoxy-D-glucitol]: the Ki – broadly, a measure of affinity in units of concentration, obtained from inhibition or displacement – was 25.2 µM in test [3], 8.5 µM in test [4], 0.45 µM in test [5] and 23 µM in test [6]. In addition, the “S.R. (Ki OGA/Ki StNagZ)” value in test [3] is given as 0.94. In addition, the “S.R. (Ki OGA/Ki VcNagZ)” value in test [4] worked out at 2.8.
For `CCC(=O)N[C@H]1CN[C@H](CO)[C@@H](O)[C@@H]1O` [Compound 20, 1,5-Imino-2-propamido-1,2,5-trideoxy-D-glucitol], the Ki is 45.4 µM in [3]; 4.2 µM in test [4]; 96 µM in test [7]; 130 µM in test [6]; 61 µM in test [8]. Besides, the “S.R. (Ki OGA/Ki StNagZ)” value in [3] is 2.9. In [4], the “S.R. (Ki OGA/Ki VcNagZ)” value is 31.
In the case of `CCCC(=O)N[C@H]1CN[C@H](CO)[C@@H](O)[C@@H]1O` [Compound 21, 2-Butamido-1,5-imino-1,2,5-trideoxy-D-glucitol], the “S.R. (Ki OGA/Ki StNagZ)” value in test [3] is reported as greater than 22. Besides, the Ki in test [4] is 9.4 µM; in [7] it was greater than 1000 µM; in [6], greater than 500 µM; in test [8] it was 1460 µM. Also, the “S.R. (Ki OGA/Ki VcNagZ)” value in [4] is given as greater than 53. In addition, the “effect on bacterial growth rates” value in test [9] is reported as “no differences in growth rates”.
As for `CCCCC(=O)N[C@H]1CN[C@H](CO)[C@@H](O)[C@@H]1O` [Compound 22, 1,5-Imino-1,2,5-trideoxy-2-valeramido-D-glucitol], the Ki in test [3] was 47.3 µM; in test [4], 110 µM; in test [7] it was greater than 1000 µM; in test [6], greater than 1000 µM; in [8], greater than 5000 µM. Also, the “S.R. (Ki OGA/Ki StNagZ)” value in test [3] is listed as greater than 21. Moreover, the “S.R. (Ki OGA/Ki VcNagZ)” value in test [4] was greater than 9.
Take `CCCCCC(=O)N[C@H]1CN[C@H](CO)[C@@H](O)[C@@H]1O` [Compound 23, 2-Hexamido-1,5-imino-1,2,5-trideoxy-D-glucitol]: the Ki in test [3] was 102 µM; in test [4], 1130 µM; in test [7], greater than 1000 µM; in [6], greater than 1000 µM; in test [8], greater than 5000 µM. For the same molecule, the “S.R. (Ki OGA/Ki StNagZ)” value in test [3] is greater than 10. Besides, the “S.R. (Ki OGA/Ki VcNagZ)” value in [4] is listed as greater than 0.9.
As to `CC(C)C(=O)N[C@H]1CN[C@H](CO)[C@@H](O)[C@@H]1O` [Compound 24, 1,5-Imino-2-isobutamido-1,2,5-trideoxy-D-glucitol], the Ki was 24.6 µM in test [3]; 15.8 µM in test [4]; 800 µM in [7]; greater than 1000 µM in test [6]; 670 µM in test [8]. The “S.R. (Ki OGA/Ki StNagZ)” value in test [3] was greater than 40.
With `CC(C)CC(=O)N[C@H]1CN[C@H](CO)[C@@H](O)[C@@H]1O` [Compound 25, 1,5-Imino-2-isovaleramido-1,2,5-trideoxy-D-glucitol], the Ki in test [3] was 294 µM; in test [4] it was 555 µM; in test [7], greater than 1000 µM; in [6], greater than 1000 µM; in test [8], greater than 5000 µM. Besides, in [3], the “S.R. (Ki OGA/Ki StNagZ)” value is given as greater than 3.4. Besides, the “S.R. (Ki OGA/Ki VcNagZ)” value in test [4] is recorded as greater than 1.8.
With `C[C@@H](O)[C@H]1C(=O)N2C(C(=O)O)=C(SCCN=CN)C[C@H]12` [Imipenem, imipenem], the Clearing radius in [2] (+21) came to 13.3 mm; in test [2] (−21), 11.9 mm. The figures for the MIC in [1] (setting [10]) and in [1] (−21) were 4 µg/mL (≈ 13.4 µM) and 8 µg/mL (≈ 26.7 µM), respectively.
